Here are results for 1 compound from patent US7265124B2, “Cristalline and amorphous form of a triazolo (4,5-D) pyridimine compound” (AstraZeneca AB, priority 2000, dated 2007).

Holding throughout (conditions): qualitative statement, no test described
In series [1] the target is P2T (P2YADP or P2TAC) receptor (Homo sapiens, UniProt Q9H244). Nature of the series: P2T receptor antagonism (potency stated in words only).
Series [2] in a line: bioavailability (stated in words only). It is filed as in vivo.
Series [3] can be described thus: metabolic stability (stated in words only). The class given is in vitro ADME.

P2T (P2YADP or P2TAC) receptor, sequence (Q9H244 whole entry): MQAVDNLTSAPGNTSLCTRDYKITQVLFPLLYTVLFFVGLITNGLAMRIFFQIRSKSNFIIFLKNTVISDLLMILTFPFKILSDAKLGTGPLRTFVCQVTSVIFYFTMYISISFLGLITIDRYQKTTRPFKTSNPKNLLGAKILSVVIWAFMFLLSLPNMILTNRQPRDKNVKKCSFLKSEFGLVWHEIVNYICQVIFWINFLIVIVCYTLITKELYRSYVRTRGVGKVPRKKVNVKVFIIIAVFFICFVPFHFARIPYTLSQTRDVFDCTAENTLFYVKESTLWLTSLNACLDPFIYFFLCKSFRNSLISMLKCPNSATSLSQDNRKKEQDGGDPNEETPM

For `CCCSc1nc(N[C@@H]2C[C@H]2c2ccc(F)c(F)c2)c2nnn([C@@H]3C[C@H](OCCO)[C@@H](O)[C@H]3O)c2n1` (relative stereo) [compound of formula (I), {1S-[1α, 2α, 3β(1S*,2R*),5β]}-3-(7-{[2-3,4-difluorophenyl)cyclopropyl]amino}-5-(propylthio)-3H-1,2,3-triazolo[4,5-d]pyrimidin-3-yl)-5-(2-hydroxyethoxy)cyclopentane-1,2-diol], in series [1], the “potency as a P2T (P2YADP or P2TAC) antagonist” value is on record as “high potency”. Also, the bioavailability result in series [2] is recorded as “surprisingly high”. Further, the metabolic stability result in series [3] was “surprisingly high”.
